Assay [1] has as its system Musclebind Like Protein 1 (MBNL1). As to the kind of experiment: MBNL1 protein expression in human skeletal muscle cells (hSKMC), HTRF. The assay is classed as cell-based. Particulars: 0.5 mg/ml, 48 hours, relative to basal control. The procedure:
Musclebind Like Protein 1 (MBNL1) in Human Skeletal Muscle Cells (hSKMC)
An increase of MBNL-1 in muscle cells helps maintaining the tone of facial skin muscles. Thus, compounds able to enhance MBNL-1 can be used as a good approach for cosmetic treatment of sagging facial appearance.
Human skeletal muscle cells (hSKMC) were cultured at 100,000 cells in T25 flasks with growth medium. After 4 days, cells reached around 80% of confluency and were seeded at 150,000 cells per well in 12-well plates in growth medium. Cells were incubated for 72 hours and then they were changed to differentiation medium and incubated during 48 hours. At the end of this period, cells were treated with defined peptides (0.5 mg/ml) and with medium alone for control conditions during 48 hours in differentiation medium. Cells were also treated with 2 mM of ketoprofen as a positive control.
After the incubation period, cells were lysed and frozen at −80 °C. For total protein quantification protein extract was measured by Bicinchoninic Acid (BCA) method. MBNL1 protein detection was performed by Homogeneous Time Resolved Fluorescence (HTRF) technology. Normalization of MBNL1 levels were performed by total protein quantification for each condition. Results are expressed as a relative MBNL1 protein level respect to control conditions. At least 3 replicates were carried out per condition.

The test system of assay [2] is Human dermal fibroblast (HDF). Kind of assay: Collagen contraction assay with human dermal fibroblasts in collagen gel. Type of assay: cell-based. Conditions: 0.01 mg/ml, 24 h post detachment, without MES; basal control = 100.0, MES = 144.4. The source says:
It is known that a remarkable change in the mechanical properties of the skin with aging is due to reduced contractile capacity as well as reduced migration activity of fibroblasts. Healthy fibroblasts induce contraction of the collagen network through physical interactions with collagen fibers. The collagen network is essential for maintaining the firmness of the skin. The collagen contraction assay is a well-known experimental approach to measuring the cell-induced contraction of the extracellular matrix. In this assay, the capacity of fibroblasts, embedded in a collagen-based gel, to reduce the gel diameter is evaluated.
By improving the contractile forces, the mechanical tension can be improved, which can be associated to “lifting” effect at the scale of fibroblasts.
The microcurrent system was built by coupling gold electrodes (in order to avoid medium oxidation leading to cell death when current goes through) to opposite sides of 60 mm Petri dishes (separated by 4 cm). When a voltage is applied, an electric field generates between opposite positive and negative poles and current passes through the culture. During the stimulation time (2 hours), each of the 60 mm Petri dishes is connected to a voltage source that allows regulating the amount of current that passes through each of them. For these experiments, a […] current (which corresponds to approx. 67 mV/mm) was used.
Human dermal fibroblast (HDF) cell culture and expansion: Cells were thawed in T75 flasks and the growth medium was changed every 2 days of cell culture. After 7 days, cells were expanded to obtain a total amount of 7×10^6 cells to be used in the experiments.
Once finished the expansion, cultures are trypsinized and seeded at 3×10^5 cells/60 mm Petri up to a total of 10 dishes per replicate. These ten dishes correspond to one experiment (Control/-MES vs+MES) at a specific concentration. Peptide treatment was performed at 0.01 mg/ml.
After an overnight (O/N) incubation to allow cell attachment, each Petri dish is treated at the corresponding concentration with 4 ml of specific medium for a total of 24 hours in both conditions (without MES and with MES). Peptide treatment on the dishes that are not stimulated with microcurrent is initiated 2 hours in advance, and their passage into 3D cultures occurs at the same time as the microcurrent stimulation of the other dishes. […]
Each 3D culture is prepared by mixing collagen solution with the culture medium corresponding to each of the conditions (without peptide or with peptide). […] Images of collagen gel diameter are taken of each well at 24 hours post detachment and analyzed by ImageJ. […]
[formula] • An initial area is stablished. […] Area t=0 gel […]1.86 cm^2 (Area of a well in a 24-well plate) • Quantification of Area at t=x; Ax. […]

Another assay has as its system EDA-Fn. As to the kind of experiment: Myofibroblast marker EDA-Fn by immunofluorescence. The assay is classed as cell-based, human. Particulars: 0.01 mg/ml; basal control = 100.0, MES = 135.7. The method, then: EDA-Fn is an isoform of fibronectin, which serves as marker for the presence of myofibroblasts.
After the experimental protocol described in EXAMPLE 8, recovery of the cells was performed by the extraction of cells from the 3D culture and their reseeding on glass coverslips. To recover cells, the collagen hydrogel was digested in agitation at 37 °C with a collagenase solution. After the digestion, cycles of centrifugation and washing were performed to eliminate collagen debris. Then, cells were seeded on coverslips in replicated as in the conditions of the 3D cultures of EXAMPLE 8. For future fluorescence analysis, cells were seeded on glass coverslips previously coated with collagen at a density of 3×10^5 fibroblasts/cm^2, let attach overnight and fixed with 4% PFA.
Glass coverslips were used to perform EDA-Fn immunofluorescence, a marker of myofibroblasts. EDA-Fn immunofluorescence was performed in control samples (with or without MES) and after peptide treatment (PEP-1 0.01 mg/ml). Briefly, cells attached to coverslips were permeabilized by 0.5% Triton X-100 in PBS for 10 minutes at room temperature. Then, blocking solution (4% BSA in PBS) was added for 2 hours. […] Finally, green fluorescence intensity was quantified in Operetta (PerkinElmer) for each condition and normalized by the number of nuclei. […]

Each structure is given as a SMILES string. Where a SMILES comes first, the peptide text is derived from it.

As for `CC(C)C[C@H](N)C(=O)N1CCC[C@H]1C(=O)N[C@H](C(=O)N[C@H](C(=O)O)[C@@H](C)O)C(C)C` [PEP-1, H-Leu-Pro-Val-Thr-OH] (H-LPVT-OH), the “% MBNL1 vs Basal control” value in assay [1] came to 213.0%. Moreover, in assay [2], the “Collagen contraction, MEAN ± SEM” value came out at 137.5 ± 7.8%. Also, in the assay on EDA-Fn, the “Fold induction of EDA-Fn as myofibroblast marker, % Fold induction (FI) MEAN ± SEM” value is on record as 172.3 ± 14.36%.

Values taken from patent publication US20260374809A1, “COMPOUNDS USEFUL FOR THE TREATMENT AND/OR CARE OF THE SKIN, HAIR, NAILS AND/OR MUCOUS MEMBRANES” (Lubrizol Advanced Materials, Inc., priority 2022, published 2026).
